In ChEMBL document CHEMBL5465560, “Selectivity Literature for EUbOPEN Chemogenomic Library” (2024):

Assays:
[1] = biological target: Prostaglandin G/H synthase 1 (Homo sapiens) (UniProt P23219); experiment: Selectivity interaction (Eurofins-Panlabs Screen) EUB0001548a PTGS1; conditions: at 10 µM
[2] = biological target: Sodium channel protein type 2 subunit alpha (Homo sapiens) (UniProt Q99250); experiment: Selectivity interaction (Eurofins-Panlabs Screen) EUB0001548a SCN2A; conditions: at 10 µM
[3] = biological target: Adenosine receptor A2a (Homo sapiens, UniProt P29274); experiment: Selectivity interaction (Eurofins-Panlabs Screen) EUB0001548a ADORA2A; conditions: at 10 µM
[4] = biological target: Sodium/nucleoside cotransporter 1 (Homo sapiens, UniProt O00337); experiment: Selectivity interaction (Eurofins-Panlabs Screen (enzymatic assay)) EUB0001548a SLC28A1
[5] = biological target: T1, Dual specificity tyrosine-phosphorylation-regulated kinase 1B (Homo sapiens, UniProt Q9Y463); experiment: Selectivity interaction (Kinome Scan (DiscoverX, competition binding assay)) EUB0001548a DYRK1B
Target sequence in this assay (Q9Y463 whole entry): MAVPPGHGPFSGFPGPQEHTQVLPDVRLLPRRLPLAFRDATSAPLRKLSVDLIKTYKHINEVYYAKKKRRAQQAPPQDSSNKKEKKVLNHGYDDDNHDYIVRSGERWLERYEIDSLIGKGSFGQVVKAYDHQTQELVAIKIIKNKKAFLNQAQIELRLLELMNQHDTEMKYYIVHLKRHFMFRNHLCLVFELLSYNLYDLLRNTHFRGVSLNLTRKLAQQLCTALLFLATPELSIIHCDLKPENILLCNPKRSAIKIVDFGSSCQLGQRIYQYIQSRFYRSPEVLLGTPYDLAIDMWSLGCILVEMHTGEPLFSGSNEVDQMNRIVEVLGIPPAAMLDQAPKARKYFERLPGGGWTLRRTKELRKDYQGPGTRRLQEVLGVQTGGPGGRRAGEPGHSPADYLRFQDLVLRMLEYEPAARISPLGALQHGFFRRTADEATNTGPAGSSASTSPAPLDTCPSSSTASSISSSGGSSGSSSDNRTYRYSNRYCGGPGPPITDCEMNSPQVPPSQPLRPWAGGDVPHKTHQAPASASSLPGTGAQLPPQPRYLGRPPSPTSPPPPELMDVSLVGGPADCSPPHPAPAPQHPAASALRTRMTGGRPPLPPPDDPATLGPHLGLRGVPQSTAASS

[6] = biological target: Serine/threonine-protein kinase 10 (Homo sapiens) (UniProt O94804); experiment: Selectivity interaction (KinomeScan (DiscoverX)) EUB0001548a STK10; conditions: at 1 µM
[7] = biological target: Sodium/nucleoside cotransporter 1 (Homo sapiens) (UniProt O00337); experiment: Selectivity interaction (Eurofins-Panlabs Screen) EUB0001548a SLC28A1; conditions: at 10 µM
[8] = biological target: T2, Mitotic checkpoint serine/threonine-protein kinase BUB1 (Homo sapiens, UniProt O43683); experiment: Selectivity interaction (KinomeScan (DiscoverX, competition binding assay)) EUB0001548a BUB1
[9] = biological target: T1, Dual specificity tyrosine-phosphorylation-regulated kinase 1B; experiment: Selectivity interaction (KinomeScan (DiscoverX)) EUB0001548a DYRK1B; conditions: at 1 µM
Target sequence in this assay (Q9Y463 whole entry, looked up): as the sequence (Q9Y463 whole entry) above

[10] = biological target: 3',5'-cyclic-AMP phosphodiesterase 4A (Homo sapiens, UniProt P27815); experiment: Selectivity interaction (Eurofins-Panlabs Screen) EUB0001548a PDE4A; conditions: at 10 µM
[11] = biological target: T3, Gamma-aminobutyric acid receptor subunit alpha-1 (Homo sapiens) (UniProt P14867); experiment: Selectivity interaction (Eurofins-Panlabs Screen) EUB0001548a GABRA1; conditions: at 10 µM
T3 sequence (whole entry): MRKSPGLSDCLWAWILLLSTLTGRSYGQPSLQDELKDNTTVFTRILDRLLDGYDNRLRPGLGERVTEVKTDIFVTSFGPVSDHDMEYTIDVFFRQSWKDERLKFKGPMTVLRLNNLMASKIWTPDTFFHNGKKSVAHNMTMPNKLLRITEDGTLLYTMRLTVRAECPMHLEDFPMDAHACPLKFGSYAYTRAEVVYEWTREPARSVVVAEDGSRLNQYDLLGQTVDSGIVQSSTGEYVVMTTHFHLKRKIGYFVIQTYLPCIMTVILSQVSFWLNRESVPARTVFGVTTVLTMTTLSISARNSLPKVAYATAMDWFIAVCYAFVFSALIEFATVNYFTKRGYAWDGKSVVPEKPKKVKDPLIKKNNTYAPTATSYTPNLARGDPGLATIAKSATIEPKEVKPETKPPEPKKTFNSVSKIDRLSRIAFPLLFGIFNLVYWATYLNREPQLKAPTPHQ

[12] = biological target: T2, Mitotic checkpoint serine/threonine-protein kinase BUB1; experiment: Selectivity interaction (TR-FRET kinase assay ) EUB0001548a BUB1
[13] = biological target: RAC-gamma serine/threonine-protein kinase (Homo sapiens, UniProt Q9Y243); experiment: Selectivity interaction (NanoBRET assay (HEK293T cells)) EUB0001563a AKT3; type: cell-based; conditions: hek-293t
[14] = biological target: T2, Mitotic checkpoint serine/threonine-protein kinase BUB1; experiment: Selectivity interaction (Kinase panel (literature)) EUB0001549a BUB1
[15] = biological target: Calcium/calmodulin-dependent protein kinase type IV (Homo sapiens, UniProt Q16566); experiment: Selectivity interaction (KinomeScan (DiscoverX, competition-binding assay)) EUB0001547a CAMK4
[16] = biological target: Mitogen-activated protein kinase 15 (Homo sapiens, UniProt Q8TD08); experiment: Selectivity interaction (KinomeScan (DiscoverX, competition binding assay)) EUB0001547a MAPK15
[17] = biological target: Cyclin-dependent kinase 7 (Homo sapiens, UniProt P50613); experiment: Selectivity interaction (KinomeScan (DiscoverX, competition-binding assay)) EUB0001547a CDK7
[18] = biological target: Death-associated protein kinase 1 (Homo sapiens, UniProt P53355); experiment: Selectivity interaction (KinomeScan (DiscoverX, competition-binding assay)) EUB0001547a DAPK1
[19] = biological target: Homeodomain-interacting protein kinase 3 (Homo sapiens, UniProt Q9H422); experiment: Selectivity interaction (KinomeScan (DiscoverX, competition-binding assay)) EUB0001547a HIPK3
[20] = biological target: Serine/threonine-protein kinase 17B (Homo sapiens, UniProt O94768); experiment: Selectivity interaction (KinomeScan (competition-binding assay, DiscoverX)) EUB0001547a STK17B
[21] = biological target: T4, Alpha-1A adrenergic receptor (Homo sapiens) (UniProt P35348); experiment: Selectivity interaction (GPCR panel (PDSP screen)) EUB0001492b ADRA1A; conditions: at 10 µM
T4 sequence (whole entry): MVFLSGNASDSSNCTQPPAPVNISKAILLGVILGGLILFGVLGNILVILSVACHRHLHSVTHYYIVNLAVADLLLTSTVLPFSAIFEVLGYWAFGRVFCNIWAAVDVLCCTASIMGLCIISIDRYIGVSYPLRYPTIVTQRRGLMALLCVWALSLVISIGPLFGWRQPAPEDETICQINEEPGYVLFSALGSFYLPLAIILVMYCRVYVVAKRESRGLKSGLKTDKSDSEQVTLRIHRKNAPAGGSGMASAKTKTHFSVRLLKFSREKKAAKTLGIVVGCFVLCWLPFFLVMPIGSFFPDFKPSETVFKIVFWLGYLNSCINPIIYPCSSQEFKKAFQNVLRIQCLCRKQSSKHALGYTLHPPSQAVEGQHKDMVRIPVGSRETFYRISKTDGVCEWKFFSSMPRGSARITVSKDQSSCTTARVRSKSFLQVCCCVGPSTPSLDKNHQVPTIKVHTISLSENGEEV

[22] = biological target: D(4) dopamine receptor (Homo sapiens) (UniProt P21917); experiment: Selectivity interaction (GPCR panel (PDSP screen)) EUB0001492b DRD4; conditions: at 10 µM
[23] = biological target: D(1A) dopamine receptor (Homo sapiens, UniProt P21728); experiment: Selectivity interaction (GPCR panel (PDSP screen)) EUB0001492b DRD1; conditions: at 10 µM
[24] = biological target: T5, 4-aminobutyrate aminotransferase, mitochondrial (Homo sapiens, UniProt P80404); experiment: (§1) Selectivity interaction (GPCR panel (PDSP screen)) EUB0001492b ABAT; conditions: at 10 µM
[25] = biological target: D(2) dopamine receptor (Homo sapiens, UniProt P14416); experiment: Selectivity interaction (GPCR panel (PDSP screen)) EUB0001492b DRD2; conditions: at 10 µM
[26] = biological target: D(3) dopamine receptor (Homo sapiens, UniProt P35462); experiment: Selectivity interaction (GPCR panel (PDSP screen)) EUB0001492b DRD3; conditions: at 10 µM
[27] = biological target: Muscarinic acetylcholine receptor M3 (Homo sapiens, UniProt P20309); experiment: Selectivity interaction (GPCR panel (PDSP screen)) EUB0001492b CHRM3; conditions: at 10 µM
[28] = biological target: 5-hydroxytryptamine receptor 1D (Homo sapiens) (UniProt P28221); experiment: Selectivity interaction (GPCR panel (PDSP screen)) EUB0001492b HTR1D; conditions: at 10 µM
[29] = biological target: 5-hydroxytryptamine receptor 7 (Homo sapiens) (UniProt P34969); experiment: Selectivity interaction (GPCR panel (PDSP screen)) EUB0001492b HTR7; conditions: at 10 µM
[30] = biological target: T3, Gamma-aminobutyric acid receptor subunit alpha-1 (Homo sapiens); experiment: Selectivity interaction (GPCR panel (PDSP screen)) EUB0001492b GABRA1; conditions: at 10 µM
[31] = biological target: Beta-3 adrenergic receptor (Homo sapiens) (UniProt P13945); experiment: Selectivity interaction (GPCR panel (PDSP screen)) EUB0001492b ADRB3; conditions: at 10 µM
[32] = biological target: Cyclin-G-associated kinase (Homo sapiens, UniProt O14976); experiment: Selectivity interaction (Kinase panel (enzymatic assay, literature)) EUB0001492b GAK
[33] = biological target: AP2-associated protein kinase 1 (Homo sapiens, UniProt Q2M2I8); experiment: Selectivity interaction (Kinase panel (enzymatic assay, literature)) EUB0001492b AAK1
[34] = biological target: Alpha-1D adrenergic receptor (Homo sapiens) (UniProt P25100); experiment: Selectivity interaction (GPCR panel (PDSP screen)) EUB0001492b ADRA1D; conditions: at 10 µM
[35] = biological target: T6, 5-hydroxytryptamine receptor 1A (Homo sapiens) (UniProt P08908); experiment: Selectivity interaction (GPCR panel (PDSP screen)) EUB0001492b HTR1A; conditions: at 10 µM
T6 sequence (whole entry): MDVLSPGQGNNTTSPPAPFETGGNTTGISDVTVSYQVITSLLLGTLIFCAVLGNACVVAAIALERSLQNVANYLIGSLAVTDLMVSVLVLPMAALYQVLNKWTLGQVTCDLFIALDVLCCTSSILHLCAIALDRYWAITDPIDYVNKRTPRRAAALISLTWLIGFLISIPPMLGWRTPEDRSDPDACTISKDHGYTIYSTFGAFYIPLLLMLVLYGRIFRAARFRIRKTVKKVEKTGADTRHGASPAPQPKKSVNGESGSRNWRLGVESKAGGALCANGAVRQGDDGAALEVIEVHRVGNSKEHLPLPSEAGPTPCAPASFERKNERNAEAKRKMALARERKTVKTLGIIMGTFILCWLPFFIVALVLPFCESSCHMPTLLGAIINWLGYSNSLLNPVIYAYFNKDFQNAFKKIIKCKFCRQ

[36] = biological target: T5, 4-aminobutyrate aminotransferase, mitochondrial; experiment: as §1
[37] = biological target: Interleukin-1 receptor-associated kinase 3 (Homo sapiens, UniProt Q9Y616); experiment: Selectivity interaction (NanoBRET assay (in HEK293T cells)) EUB0001492b IRAK3; type: cell-based, HEK-293T
[38] = biological target: T7, Alpha-2C adrenergic receptor (Homo sapiens) (UniProt P18825); experiment: Selectivity interaction (GPCR panel (PDSP screen)) EUB0001492b ADRA2C; conditions: at 10 µM
T7 sequence (whole entry): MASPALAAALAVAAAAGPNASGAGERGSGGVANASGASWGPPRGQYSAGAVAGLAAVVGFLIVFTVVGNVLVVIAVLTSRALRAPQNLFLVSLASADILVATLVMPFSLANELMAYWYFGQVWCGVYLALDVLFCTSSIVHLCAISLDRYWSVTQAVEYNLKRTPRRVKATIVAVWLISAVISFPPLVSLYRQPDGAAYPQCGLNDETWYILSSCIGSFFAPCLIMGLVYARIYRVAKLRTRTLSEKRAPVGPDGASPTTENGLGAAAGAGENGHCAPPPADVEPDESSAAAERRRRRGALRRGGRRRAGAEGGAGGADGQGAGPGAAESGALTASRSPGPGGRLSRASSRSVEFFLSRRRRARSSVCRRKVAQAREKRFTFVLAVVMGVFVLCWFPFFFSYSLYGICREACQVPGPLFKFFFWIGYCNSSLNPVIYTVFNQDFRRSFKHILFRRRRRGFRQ

T2 sequence (O43683 whole entry): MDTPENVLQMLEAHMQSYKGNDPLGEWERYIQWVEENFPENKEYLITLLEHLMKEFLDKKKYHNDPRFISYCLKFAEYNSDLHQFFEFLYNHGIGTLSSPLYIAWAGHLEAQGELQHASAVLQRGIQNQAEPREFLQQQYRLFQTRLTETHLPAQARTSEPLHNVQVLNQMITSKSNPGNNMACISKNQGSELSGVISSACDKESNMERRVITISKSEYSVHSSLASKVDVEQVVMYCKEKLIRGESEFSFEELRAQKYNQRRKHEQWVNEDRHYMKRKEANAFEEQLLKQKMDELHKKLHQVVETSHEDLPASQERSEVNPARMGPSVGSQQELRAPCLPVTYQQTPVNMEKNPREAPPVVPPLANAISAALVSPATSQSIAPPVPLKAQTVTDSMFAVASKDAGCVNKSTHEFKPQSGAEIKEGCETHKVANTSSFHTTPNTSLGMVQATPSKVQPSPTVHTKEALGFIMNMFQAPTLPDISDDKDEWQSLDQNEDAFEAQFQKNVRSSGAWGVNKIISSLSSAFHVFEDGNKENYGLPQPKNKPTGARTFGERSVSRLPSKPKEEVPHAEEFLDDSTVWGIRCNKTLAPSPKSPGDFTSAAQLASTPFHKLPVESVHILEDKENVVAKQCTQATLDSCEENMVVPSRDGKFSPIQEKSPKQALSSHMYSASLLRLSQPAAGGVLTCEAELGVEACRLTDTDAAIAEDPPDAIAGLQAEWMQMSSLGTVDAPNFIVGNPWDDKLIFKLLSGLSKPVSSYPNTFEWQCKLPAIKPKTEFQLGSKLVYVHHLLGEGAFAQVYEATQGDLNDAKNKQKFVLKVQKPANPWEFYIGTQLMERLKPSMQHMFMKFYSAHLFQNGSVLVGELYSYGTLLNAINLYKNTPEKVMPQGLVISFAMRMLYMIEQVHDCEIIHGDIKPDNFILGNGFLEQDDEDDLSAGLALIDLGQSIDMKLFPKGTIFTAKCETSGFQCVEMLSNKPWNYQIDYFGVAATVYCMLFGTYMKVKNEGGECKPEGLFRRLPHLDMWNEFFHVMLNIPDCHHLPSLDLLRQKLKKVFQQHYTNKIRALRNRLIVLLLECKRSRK
T5 sequence (P80404 whole entry): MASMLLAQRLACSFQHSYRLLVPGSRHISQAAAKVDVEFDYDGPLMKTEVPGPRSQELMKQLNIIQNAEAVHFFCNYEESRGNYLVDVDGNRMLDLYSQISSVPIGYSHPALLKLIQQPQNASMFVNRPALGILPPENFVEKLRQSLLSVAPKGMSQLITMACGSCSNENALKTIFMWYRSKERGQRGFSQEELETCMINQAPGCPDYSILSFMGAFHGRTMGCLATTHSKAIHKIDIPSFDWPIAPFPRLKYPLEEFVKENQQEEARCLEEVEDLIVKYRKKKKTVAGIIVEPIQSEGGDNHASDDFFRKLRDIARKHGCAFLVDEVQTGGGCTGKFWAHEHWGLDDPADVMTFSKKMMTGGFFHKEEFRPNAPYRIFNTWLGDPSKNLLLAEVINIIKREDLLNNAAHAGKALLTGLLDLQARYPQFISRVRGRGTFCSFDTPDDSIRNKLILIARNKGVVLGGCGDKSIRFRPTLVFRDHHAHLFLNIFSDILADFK
Sequence of Mitogen-activated protein kinase 15 (Q8TD08 whole entry): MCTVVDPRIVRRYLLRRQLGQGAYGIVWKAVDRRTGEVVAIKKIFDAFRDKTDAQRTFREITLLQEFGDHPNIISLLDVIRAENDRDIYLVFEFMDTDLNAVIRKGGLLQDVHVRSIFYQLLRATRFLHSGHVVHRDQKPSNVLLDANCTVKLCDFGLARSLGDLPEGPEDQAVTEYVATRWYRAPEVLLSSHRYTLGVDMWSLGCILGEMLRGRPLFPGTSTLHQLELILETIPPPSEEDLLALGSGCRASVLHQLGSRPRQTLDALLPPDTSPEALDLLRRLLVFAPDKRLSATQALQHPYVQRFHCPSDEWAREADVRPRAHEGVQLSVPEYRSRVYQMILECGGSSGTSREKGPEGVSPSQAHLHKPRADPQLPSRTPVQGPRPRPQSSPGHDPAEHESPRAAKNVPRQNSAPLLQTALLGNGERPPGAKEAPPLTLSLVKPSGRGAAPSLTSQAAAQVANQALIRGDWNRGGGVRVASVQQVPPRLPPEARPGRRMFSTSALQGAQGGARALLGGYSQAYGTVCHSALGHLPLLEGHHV
Sequence of Muscarinic acetylcholine receptor M3 (P20309 whole entry, looked up): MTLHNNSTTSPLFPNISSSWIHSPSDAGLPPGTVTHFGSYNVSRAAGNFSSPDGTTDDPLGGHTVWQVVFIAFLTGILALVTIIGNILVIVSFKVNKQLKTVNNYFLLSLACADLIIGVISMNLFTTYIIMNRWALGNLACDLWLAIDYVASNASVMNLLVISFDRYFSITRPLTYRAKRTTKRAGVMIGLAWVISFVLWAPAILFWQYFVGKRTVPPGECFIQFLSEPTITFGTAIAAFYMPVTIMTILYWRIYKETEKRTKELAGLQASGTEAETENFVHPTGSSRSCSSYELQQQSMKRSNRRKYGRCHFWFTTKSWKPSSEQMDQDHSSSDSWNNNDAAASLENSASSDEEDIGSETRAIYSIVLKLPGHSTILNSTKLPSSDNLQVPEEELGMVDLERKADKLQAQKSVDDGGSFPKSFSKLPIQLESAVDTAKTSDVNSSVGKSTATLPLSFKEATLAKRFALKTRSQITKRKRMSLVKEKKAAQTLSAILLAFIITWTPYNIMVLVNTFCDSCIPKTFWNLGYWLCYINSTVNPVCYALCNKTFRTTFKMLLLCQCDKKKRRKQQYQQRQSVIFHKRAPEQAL
Sequence of AP2-associated protein kinase 1 (Q2M2I8 whole entry): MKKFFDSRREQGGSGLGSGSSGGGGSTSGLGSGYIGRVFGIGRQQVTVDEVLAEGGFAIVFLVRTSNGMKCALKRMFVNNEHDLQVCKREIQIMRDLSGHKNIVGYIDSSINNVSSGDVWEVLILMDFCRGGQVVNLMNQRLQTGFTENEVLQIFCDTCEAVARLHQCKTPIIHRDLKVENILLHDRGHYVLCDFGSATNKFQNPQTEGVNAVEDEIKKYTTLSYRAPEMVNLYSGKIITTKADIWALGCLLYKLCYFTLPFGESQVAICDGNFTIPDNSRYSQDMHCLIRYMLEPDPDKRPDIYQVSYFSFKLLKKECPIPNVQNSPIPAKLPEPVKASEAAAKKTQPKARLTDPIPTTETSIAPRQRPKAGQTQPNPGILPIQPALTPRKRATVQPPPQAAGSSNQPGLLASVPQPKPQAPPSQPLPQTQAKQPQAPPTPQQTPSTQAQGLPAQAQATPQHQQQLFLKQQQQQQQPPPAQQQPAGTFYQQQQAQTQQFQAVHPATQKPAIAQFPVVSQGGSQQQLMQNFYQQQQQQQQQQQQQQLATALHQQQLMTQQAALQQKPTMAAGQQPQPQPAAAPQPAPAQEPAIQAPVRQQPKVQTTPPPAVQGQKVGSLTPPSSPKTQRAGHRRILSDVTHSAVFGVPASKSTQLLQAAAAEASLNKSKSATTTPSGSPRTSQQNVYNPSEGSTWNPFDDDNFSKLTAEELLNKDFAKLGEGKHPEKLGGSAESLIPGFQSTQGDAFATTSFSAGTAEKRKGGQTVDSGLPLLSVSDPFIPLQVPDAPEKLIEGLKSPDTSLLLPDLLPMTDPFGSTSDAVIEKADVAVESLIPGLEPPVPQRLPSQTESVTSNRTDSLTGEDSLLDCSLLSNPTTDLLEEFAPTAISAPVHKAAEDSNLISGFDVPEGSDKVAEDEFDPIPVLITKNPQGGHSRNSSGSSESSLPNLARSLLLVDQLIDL

COc1cnccc1Nc1nc(-c2nn(Cc3c(F)cc(OCCO)cc3F)c3ccccc23)ncc1OC
% of inhibition [1]: 54%
% of inhibition [2]: 53%
% of inhibition [3]: 67%
IC50 [4]: 370 nM
Kd [5]: > 30000 nM
% of control [6]: 0.6%
% of inhibition [7]: 71%
IC50 [8]: 3.3 nM
% of control [9]: 6.7%
% of inhibition [10]: 52%
% of inhibition [11]: 60%
IC50 [12]: 4.3 nM

C=CC(=O)Nc1ccc2[nH]c(=O)n(C3CCN(Cc4ccc(-c5ccc6c(c5)NC(=O)CO6)cc4)CC3)c2c1 [RL2578]
IC50 [13]: 18000 nM

COc1ccccc1Nc1nc(-c2nn(Cc3c(F)cc(OCCCO)cc3F)c3ccccc23)ncc1OC
IC50 [14]: > 20000 nM

N[C@@H]1CCCN(c2c(/C=C3\SC(=O)NC3=O)cccc2-c2ccccc2)C1
Kd [15]: 360 nM
Kd [16]: 5 nM
Kd [17]: 38 nM
Kd [18]: 420 nM
Kd [19]: 480 nM
Kd [20]: 930 nM

CCC(F)(F)c1cc(N2CCC(S(C)(=O)=O)CC2)nc2sc(C(N)=O)c(N)c12 [BI-605906]
% of inhibition [21]: 18.9%
% of inhibition [22]: 44.6%
% of inhibition [23]: 25.7%
% of inhibition [24]: 51.8%
% of inhibition [25]: 69.8%
% of inhibition [26]: 51.5%
% of inhibition [27]: 21.1%
% of inhibition [28]: 26.9%
% of inhibition [29]: 13.7%
% of inhibition [30]: 34.5%
% of inhibition [31]: 18%
IC50 [32]: 272 nM
IC50 [33]: 188 nM
% of inhibition [34]: 36.7%
% of inhibition [35]: 14.4%
Ki [36]: 2620 nM
IC50 [37]: > 20000 nM
% of inhibition [38]: 13.7%
